Assay results from patent EP1845096A1, “12-Aza-epothilones, process for their preparation and their use as antiproliferative agents” (ETH Zürich, priority 2006, dated 2007).
Where two headings read alike, the source gives them in different places.

Key:
HCT-116 = assay: Human cancer cell growth inhibition, methylene blue staining, HCT-116; assay type: cell-based; details: read-out: IC50 HCT-116
Protocol: (§1) Stock solutions of the test compounds (2 mM) are prepared in DMSO and stored at -20°C. Human KB-31 and (multidrug-resistant, P-gp170 expressing) KB-8511 epidermoid carcinoma cells (Akiyama et al., Somat. Cell. Mol. Genetics 1985, 11, 117-120), which are both derivatives of the KB cell line (ATCC) and are human epidermis carcinoma cells, are employed. KB 31 cells may be cultivated in mono-layers using Dulbecco's modified Eagle's medium (D-MEM) with 10% foetal calf serum (M.A. Bioproducts), L-glutamine (Flow), penicillin (50 units/ml) and streptomycin (50 µg/ml) (Flow); they then grow at a duplication time of ca. 22 hours, and their relative plating efficiency is ca. 60%. KB-8511 is a variant derived from the KB-31 cell line, which is obtained using colchicine treatment cycles, and has an approximately 40 times relative resistance to colchicine compared with KB-31 cells. The cells are incubated at 37°C in an incubator with 5% v/v CO2 and at 80% relative humidity with MEMAlpha medium which contains ribonucleosides and desoxyribonucleosides (Gibco BRL), complemented with 10 IU penicillin, 10 µg/ml streptomycin and 5% foetal calf serum. The cells are seeded in a quantity of 1.5 x 10^3 cells/well in 96-well microtitre plates, and incubated over night. Serial dilutions of the test compounds in culture medium are added on day 1. […] After washing, the dye is eluted with 3% HCl and the optical density measured at 665 nm with a GeniosPro plate spectrophotometer (Tecan, Switzerland). IC50 values are determined by adaptation of mathematical curves, using the formula [(OD treated)-(OD start) [/] (OD control)-(OD start)] x 100. The IC50 is defined as the concentration of a test compound at the end of the incubation period, which led to 50% of the cell count per well compared with the control (concentration at semi-maximum inhibition of cell growth).
(§2) The preferred ranges of the IC50 values of compounds of formula (I) are given in square parentheses. A549 (lung; ATCC CCL 185) [0.01 to 100 nM], HCT-116 (colon) [0.05 to 200 nM], and PC-3M cells (prostate, hormone-insensitive derivative derived from PC-3, ATCC CRL 1435) [0.05 to 500 nM] were grown in RPMI-1640 medium supplemented with 10% FBS.

A549 = assay: Human cancer cell growth inhibition, methylene blue staining, A549; assay type: cell-based
Protocol: as §1, §2

PC-3M = assay: Human cancer cell growth inhibition, methylene blue staining, PC-3M; assay type: cell-based; details: read-out: IC50 PC-3M
Protocol: as §1, §2

porcine brain αβ-tubulin = porcine brain αβ-tubulin (Sus scrofa, UniProt P02554); assay: Tubulin polymerization (turbidimetry at 340 nm); assay type: biochemical
Protocol: Tubulin is isolated as pure αβ-tubulin from fresh pig brain according to the method of Castoldi and Popov (Protein Expr. Purif. 2003, 32, 83-88). Working stock solutions of αβ-tubulin are stored at -80°C. Freshly thawed αβ-tubulin is centrifuged and then incubated with the compounds to be tested in suitable solvents and buffers, guanosine-5'-triphosphate (GTP), and glutamate in a 96-well plate, as described in more detail below in the Examples. The polymerization is monitored real-time at 340 nm in a temperature-controlled TECAN GeniosPro spectrophotometer. UV absorption of compounds is subtracted from absorption curves.
Tubulin was isolated as pure αβ-tubulin from fresh pig brain according to the method of Castoldi and Popov (Protein Expr. Purif. 2003, 32, 83-88). Fresh brains were obtained from the local slaughterhouse and processed immediately without prior cooling. 150-200 g cleaned pig brain was put into ice-cooled depolymerization buffer (50 mM MES [2-morpholinoethanesulphonic acid], 1 mM CaCl2, adjusted to pH 6.9 with KOH) and homogenized in a Polytron mixer. The homogenate was centrifuged in a Sorvall SLA-1500 rotor at 14500 rpm for 60 min. The supernatant was transferred into an Erlenmeyer flask in high-molarity PIPES buffer (1 M PIPES [1,4-piperazinediethanesulfonic acid], 10 mM MgCl2, 20 mM EGTA [ethylene glycol-bis-2(2-aminoethyl)-tetraacetic acid] adjusted to pH 6.9 with KOH) plus […] (1.5 mM final concentration) and glycerol (98%) ad 300 ml. The resulting suspension was mixed and incubated at 37°C for 1 hour. Aliquots were transferred into ultracentrifuge tubes and centrifuged in a Beckman Ti50.2 rotor at.32500 rpm (96000 g) for 75 min at 30°C. The microtubule protein pellets were resuspended in depolymerization buffer and put on ice prior to ultracentrifugation at 4°C. The procedure was repeated for two polymerization cycles (total of 3 cycles) and the final αβ-tubulin pellets were resuspended in ice-cold Brinkley Buffer (BRB80; 80 mM PIPES, 1 mM MgCl2, 1 mM EGTA adjusted to pH 6.8 with KOH) prior to shock-freezing in liquid nitrogen and subsequent storage at -80°C. αβ-tubulin purity and concentration were determined by SDS-PAGE gel electrophoresis and spectrophotometrically (A = ε x c x d with a given extinction coefficient of 115'000 M^-1cm^-1) at 280 nm. This procedure typically yielded 60-100 mg of αβ-tubulin per 100 g of brain.
Freshly thawed αβ-tubulin was centrifuged at 5000 g for 5 min at 5°C and then incubated with additional BRB80 buffer, drugs, DMSO vehicle, guanosine-5'-triphosphate (GTP) / glutamate (25 mM /2.7 M), respectively, in a 96-well plate in either 50 or 100 µl volumes. Experiments were either carried out in a 96-well quartz plate or in normal 96-well polystyrene plates (Falcon). The polymerization was monitored real-time at 340 nm in a temperature-controlled TECAN GeniosPro spectrophotometer. Depending on the specific experiment, the temperature was set either to room temperature (actual measuring temperature was 24-27°C) or 37°C. […] UV absorption of compounds was subtracted from absorption curves. All experiments, along with both negative (untreated αβ-tubulin) and vehicle controls, were carried out in triplicate. Experiments were performed at least with two different αβ-tubulin batches.

[1] = test system: drug-sensitive human cancer cells; assay: Potency comparison on drug-sensitive human cancer cell lines (from Table 1); assay type: cell-based; details: potency ratio versus reference compound B
Protocol: as §1, with “The cells are incubated at 37°C in an incubator with 5% v/v CO2 and at 80% relative humidity with MEMAlpha medium which contains ribonucleosides and desoxyribonucleosides (Gibco BRL), complemented with 10 IU penicillin, 10 µg/ml streptomycin and 5% foetal calf serum.” left out, “night.” for “night. Serial dilutions of the test compounds in culture medium are added on day 1.”, “(OD control)-(OD start)] x 100. The IC50 is defined as the concentration of a test compound at the end of the incubation period, which led to 50% of the cell count per well compared with the control (concentration at semi-maximum inhibition of cell growth).” left out

KB-31 = assay: Human cancer cell growth inhibition, methylene blue staining, KB-31; assay type: cell-based; details: read-out: IC50 KB-31
Protocol: as §1, with “The cells are incubated at 37°C in an incubator with 5% v/v CO2 and at 80% relative humidity with MEMAlpha medium which contains ribonucleosides and desoxyribonucleosides (Gibco BRL), complemented with 10 IU penicillin, 10 µg/ml streptomycin and 5% foetal calf serum.” left out, “night.” for “night. Serial dilutions of the test compounds in culture medium are added on day 1.”, “(OD control)-(OD start)] x 100. The IC50 is defined as the concentration of a test compound at the end of the incubation period, which led to 50% of the cell count per well compared with the control (concentration at semi-maximum inhibition of cell growth).” left out

porcine brain αβ-tubulin, sequence (P02554 whole entry): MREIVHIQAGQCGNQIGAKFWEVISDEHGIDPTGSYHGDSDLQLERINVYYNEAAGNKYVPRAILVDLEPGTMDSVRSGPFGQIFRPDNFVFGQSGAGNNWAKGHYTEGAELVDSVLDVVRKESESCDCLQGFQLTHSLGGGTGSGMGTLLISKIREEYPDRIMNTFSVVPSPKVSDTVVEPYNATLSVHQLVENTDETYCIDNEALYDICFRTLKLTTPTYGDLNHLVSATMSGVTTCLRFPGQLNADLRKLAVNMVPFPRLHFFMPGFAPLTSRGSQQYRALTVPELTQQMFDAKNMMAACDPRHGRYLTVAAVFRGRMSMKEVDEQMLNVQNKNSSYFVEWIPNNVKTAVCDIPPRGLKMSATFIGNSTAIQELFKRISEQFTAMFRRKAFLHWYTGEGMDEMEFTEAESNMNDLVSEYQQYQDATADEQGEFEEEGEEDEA
porcine brain αβ-tubulin, sequence (P02550 whole entry partner): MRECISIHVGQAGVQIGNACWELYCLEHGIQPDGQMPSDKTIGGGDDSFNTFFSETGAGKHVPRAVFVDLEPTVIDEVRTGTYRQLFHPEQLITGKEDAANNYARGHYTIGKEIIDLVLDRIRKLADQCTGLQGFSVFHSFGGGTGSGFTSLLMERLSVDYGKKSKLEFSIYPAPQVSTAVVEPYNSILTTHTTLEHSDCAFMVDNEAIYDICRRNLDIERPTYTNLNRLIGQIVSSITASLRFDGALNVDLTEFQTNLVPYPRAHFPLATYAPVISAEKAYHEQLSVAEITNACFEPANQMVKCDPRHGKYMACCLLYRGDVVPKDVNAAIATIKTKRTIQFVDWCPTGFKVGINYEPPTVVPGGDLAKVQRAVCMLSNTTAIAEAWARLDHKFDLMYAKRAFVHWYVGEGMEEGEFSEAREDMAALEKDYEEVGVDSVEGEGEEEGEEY

Cc1nc2cc([C@@H]3CCN(C(=O)OC(C)(C)C)C/C=C/[C@H](C)[C@H](O)[C@@H](C)C(=O)C(C)(C)[C@@H](O)CC(=O)O3)ccc2n1C [A, (2S,9S,10S,11R,14S,E)-tert-butyl-2-(1,2-dimethyl-1H-benzo[d]imidazol-5-yl)-10,14-dihydroxy-9,11,13,13-tetramethyl-12,16-dioxo-1-oxa-5-azacyclohexadec-7-ene-5-carboxylate, reference compound]
IC50 (HCT-116; HCT-116, 72 h): 1010 ± 71 nM
IC50 (A549; A549, read-out: IC50 A549): 920 ± 85 nM
IC50 (PC-3M; PC-3M): 973 ± 64 nM
EC50 (porcine brain αβ-tubulin): 9.1 ± 0.7 µM

Cc1nc2cc([C@@H]3CCN(C(=O)OCC(F)(F)F)CCC[C@H](C)[C@H](O)[C@@H](C)C(=O)C(C)(C)[C@@H](O)CC(=O)O3)ccc2n1C [Compound 3]
IC50 (HCT-116; HCT-116, 72 h): 17.1 ± 3.3 nM
IC50 (A549; A549, read-out: IC50 A549): 11.5 ± 1.8 nM
IC50 (PC-3M; PC-3M): 6.3 ± 2.1 nM
EC50 (porcine brain αβ-tubulin): 5.1 ± 0.5 µM

CCOC(=O)N1CCC[C@H](C)[C@H](O)[C@@H](C)C(=O)C(C)(C)[C@@H](O)CC(=O)O[C@H](c2ccc3c(c2)nc(C)n3C)CC1 [Compound 2]
IC50 (HCT-116; HCT-116, 72 h): 23.9 ± 2.9 nM
IC50 (A549; A549, read-out: IC50 A549): 18 ± 3.1 nM
IC50 (PC-3M; PC-3M): 12.3 ± 1.1 nM
EC50 (porcine brain αβ-tubulin): 5.4 ± 0.4 µM

C/C(=C\c1csc(C)n1)[C@@H]1C[C@@H]2O[C@@H]2CCC[C@H](C)[C@H](O)[C@@H](C)C(=O)C(C)(C)[C@@H](O)CC(=O)O1 [C, Epothilone A, reference compound]
IC50 (HCT-116; HCT-116, 72 h): 2.2 ± 0.3 nM
IC50 (A549; A549, read-out: IC50 A549): 3.2 ± 0.5 nM
IC50 (PC-3M; PC-3M): 3.4 ± 0.4 nM
EC50 (porcine brain αβ-tubulin): 4.6 ± 0.5 µM

Cc1nc2cc([C@@H]3CCN(C(=O)OC(C)(C)C)CCC[C@H](C)[C@H](O)[C@@H](C)C(=O)C(C)(C)[C@@H](O)CC(=O)O3)ccc2n1C [Compound 1, (2S,9S,10S,11R,14S)-tert-butyl-2-(1,2-dimethyl-1H-benzo[d]imidazol-5-yl)-10,14-dihydroxy-9,11,13,13-tetramethyl-12,16-dioxo-1-oxa-5-azacyclohexadecane-5-carboxylate]
IC50 (HCT-116; HCT-116: colon, cells exposed for 72 h, mean of at least three experiments ± standard deviation): 1.6 ± 0.5 nM
IC50 (A549; A549: lung, cells exposed, mean of at least three experiments ± standard deviation, read-out: IC50 A549): 1.9 ± 0.4 nM
IC50 (PC-3M; PC-3M: prostate, cells exposed, mean of at least three experiments ± standard deviation): 2.3 ± 0.6 nM
more potent against drug-sensitive human cancer cells than aza-epothilone B [1]: > 60 fold
EC50 (porcine brain αβ-tubulin; concentration required to induce 50% of the maximum αβ-tubulin polymerization achievable with the respective compound, 10 µM of porcine brain αβ-tubulin, turbidity at 340 nm, mean ± standard deviation, read-out: EC50 Tubulin polymerization): 3.9 ± 0.6 µM
IC50 (KB-31; KB 3-1, KB-31: cervical (or cervix), parental line, cells exposed for 72 h): 0.35 nM

C/C(=C\c1csc(C)n1)[C@@H]1CCN(C(=O)OC(C)(C)C)CCC[C@H](C)[C@H](O)[C@@H](C)C(=O)C(C)(C)[C@@H](O)CC(=O)O1 [B, reference compound]
IC50 (HCT-116; HCT-116, 72 h): 110 ± 19 nM
IC50 (A549; A549, read-out: IC50 A549): 130 ± 24 nM
IC50 (PC-3M; PC-3M): 126 ± 22 nM
EC50 (porcine brain αβ-tubulin): 5.6 ± 0.4 µM
IC50 (KB-31; KB 3-1, 72 h): 31 nM

Cc1nc2cc([C@@H]3CCN(c4ccc([N+](=O)[O-])c5nonc45)CCC[C@H](C)[C@H](O)[C@@H](C)C(=O)C(C)(C)[C@@H](O)CC(=O)O3)ccc2n1C [Compound 17, (2S,9S,10S,11R,14S)-2-(1,2-dimethyl-1H-benzo[d]imidazol-5-yl)-10,14-dihydroxy-9,11,13,13-tetramethyl-5-(7-nitrobenzo[c][1,2,5]oxadiazol-4-yl)-1-oxa-5-azacyclohexadecane-12,16-dione]
IC50 (HCT-116; HCT-116, 72 h): 206 ± 8 nM
IC50 (A549; A549, read-out: IC50 A549): 329 ± 237 nM
IC50 (PC-3M; PC-3M): 244 ± 45 nM
EC50 (porcine brain αβ-tubulin): 7.2 ± 0.6 µM
